{
  "source": "paper PMC12833861",
  "about": "“Organoplatinum(II) Type II Immunogenic Cell Death Inducers Target Protein Tyrosine Phosphatase 1B to Drive Immunogenicity” (Journal of the American Chemical Society, 2025)",
  "biological_target": "T1, PTP1B (Homo sapiens, UniProt P18031)",
  "T1 construct": "gene PTPN1; recombinant PTP1B protein",
  "T1 sequence (P18031 1-435)": "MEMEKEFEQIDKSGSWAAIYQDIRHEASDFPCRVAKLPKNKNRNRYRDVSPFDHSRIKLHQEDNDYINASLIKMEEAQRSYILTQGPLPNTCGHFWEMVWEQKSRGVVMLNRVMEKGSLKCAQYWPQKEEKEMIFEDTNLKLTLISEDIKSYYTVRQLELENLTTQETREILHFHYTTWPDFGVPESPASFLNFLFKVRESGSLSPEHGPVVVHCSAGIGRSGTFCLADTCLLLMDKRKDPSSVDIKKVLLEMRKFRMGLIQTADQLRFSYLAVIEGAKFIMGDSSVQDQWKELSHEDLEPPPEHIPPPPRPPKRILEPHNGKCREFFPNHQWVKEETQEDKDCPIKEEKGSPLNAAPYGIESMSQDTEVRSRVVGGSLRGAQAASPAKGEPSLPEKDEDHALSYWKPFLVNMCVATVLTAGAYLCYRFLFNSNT",
  "test": "p-nitrophenyl phosphate phosphatase assay with recombinant PTP1B; supported by CETSA in HCT116 lysates (ΔTm -4.[…] °C)",
  "format": "biochemical",
  "data": [
    {"smiles": "CCCCCC[n+]1ccn2[c]1[Pt-2]1([c]3ccccc3-c3cccc[n+]31)[c]1n(cc[n+]1CCCCCC)CCC2", "note": "[Pt-ER, PlatinER]", "values": [
      {"measurement": "IC50", "value": "20.6 ± 1.8", "unit": "µM"}
    ]}
  ]
}
